Experiments:
human factor Xa = human factor Xa (Homo sapiens, UniProt P00742); assay: Simultaneous chromogenic determination of factor Xa inhibition in enriched normal plasma (Z-D-Leu-Gly-Arg-ANBA-methylamide, 405 nm); type: biochemical
Description: (§1) The following components were mixed to form one reaction: • 10 μl sample • 10 μl pool of normal human plasma • 40 μl substrate reagent (4 mM Z-D-Leu-Gly-Arg-ANBA-methylamide, 0.8 mM Tos-Gly-Pro-Arg-Basic Blue 49 in mannitol buffer, pH 4.0) • 100 μl factor Xa reagent (0.75 U/ml human factor Xa in 4.5 g/l TRIS, 9 g/l NaCl, 0.56 g/l EDTA, pH 8.0) • 100 μl thrombin reagent (5 U/ml bovine thrombin in 1.2 g/l TRIS, pH 8.2)
(§2) The sample used was normal human plasma. Factor Xa cleaves ANBA from the factor Xa-specific peptide substrate Z-D-Leu-Gly-Arg-ANBA-methylamide, increasing over time the optical density in the reaction at a wavelength of 405 nm. At the same time, thrombin cleaves Basic Blue 49 from the thrombin-specific peptide substrate Tos-Gly-Pro-Arg-Basic Blue 49, increasing over time the optical density in the reaction at a wavelength of 575 nm.
(§3) The measurements of the optical densities of the reaction at 405 nm and 575 nm and the evaluation of the reaction kinetics were carried out simultaneously in a fully automated Sysmex® CS-2000i coagulation analyzer. To measure the optical densities, the reaction was irradiated alternately with light of the aforementioned wavelengths, and the absorbance of the light, caused by the coloration of the reaction, was determined as a function of wavelength and time.
(§4) The increases in the reaction kinetics for normal plasma without inhibitors were defined as 100% of the respective enzyme activity.

bovine thrombin = bovine thrombin (Bos taurus, UniProt P00735); assay: Simultaneous chromogenic determination of thrombin inhibition in enriched normal plasma (Tos-Gly-Pro-Arg-Basic Blue 49, 575 nm); type: biochemical
Description: as §1, §2, §3
Normal plasma was enriched with various concentrations of rivaroxaban, a specific factor Xa inhibitor, and/or of argatroban, a specific thrombin inhibitor, and used as a sample in a method as per example 1.
as §4

Sequence of human factor Xa (P00742 235-488 limits assumed): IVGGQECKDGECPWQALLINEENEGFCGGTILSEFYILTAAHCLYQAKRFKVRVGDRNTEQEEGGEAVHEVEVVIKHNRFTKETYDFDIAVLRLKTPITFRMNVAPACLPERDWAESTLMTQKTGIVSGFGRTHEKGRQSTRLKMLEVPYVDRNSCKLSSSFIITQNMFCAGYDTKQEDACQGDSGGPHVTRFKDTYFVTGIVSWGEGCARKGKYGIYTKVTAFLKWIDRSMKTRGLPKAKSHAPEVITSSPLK
Sequence of human factor Xa (P00742 41-179 partner limits assumed): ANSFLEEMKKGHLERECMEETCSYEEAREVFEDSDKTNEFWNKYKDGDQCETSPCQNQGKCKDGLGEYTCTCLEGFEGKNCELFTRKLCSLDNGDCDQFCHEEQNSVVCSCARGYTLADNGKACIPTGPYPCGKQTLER

Row | SMILES | inhibition at 0.125 µg/mL (human factor Xa; normal plasma enriched with rivaroxaban 125 ng/ml, argatroban 0 ng/ml, read-out: F Xa inhibition [%]) | inhibition at 0.25 µg/mL (human factor Xa; normal plasma enriched with rivaroxaban 250 ng/ml, argatroban 0 ng/ml, read-out: F Xa inhibition [%]) | inhibition of factor Xa activity, in words (FIG. 1) (human factor Xa; samples having an increased rivaroxaban concentration, irrespective of the argatroban concentration) | inhibition at 0.25 µg/mL (bovine thrombin; normal plasma enriched with rivaroxaban 250 ng/ml, argatroban 0 ng/ml) | inhibition at 0.375 µg/mL (human factor Xa; normal plasma enriched with argatroban 375 ng/ml, rivaroxaban 0 ng/ml, read-out: F Xa inhibition [%]) | inhibition at 0.75 µg/mL (human factor Xa; normal plasma enriched with argatroban 750 ng/ml, rivaroxaban 0 ng/ml, read-out: F Xa inhibition [%]) | inhibition at 0.375 µg/mL (bovine thrombin; normal plasma enriched with argatroban 375 ng/ml, rivaroxaban 0 ng/ml) | inhibition at 0.75 µg/mL (bovine thrombin; normal plasma enriched with argatroban 750 ng/ml, rivaroxaban 0 ng/ml) | inhibition of thrombin activity, in words (FIG. 2) (bovine thrombin; samples having an increased argatroban concentration, irrespective of the rivaroxaban concentration)
1 | O=C(NC[C@H]1CN(c2ccc(N3CCOCC3=O)cc2)C(=O)O1)c1ccc(Cl)s1 [Rivaroxaban, rivaroxaban] | 42% | 65% | increased factor Xa inhibition | 5% |  |  |  |  | 
2 | CC1CNc2c(cccc2S(=O)(=O)N[C@@H](CCCNC(=N)N)C(=O)N2CC[C@@H](C)C[C@@H]2C(=O)O)C1 (stereo partly drawn) [Argatroban, argatroban] |  |  |  |  | 0% | 0% | 18% | 31% | increased thrombin inhibition

Source: patent US8932826B2, “Method for simultaneously determining multiple coagulation proteases” (Siemens Healthcare Diagnostics Products GmbH, priority 2010, dated 2015)
